Columns and labels:
[1] = tested on: human epidermoid carcinoma KB3-1 cell line; assay: MTT cytotoxicity assay, KB3-1; type: cell-based; conditions: KB 3-1, 96 h, read-out: Cytotoxicity IC50 KB3-1
Method: (§1) The cytotoxicity was determined using the as MTT-microtiter plate tetrazolinium cytotoxicity assay (MTA) following the procedures of F. Denizot et al., J. Immunol. Methods, 89, 271 (1986); J. Carmichael et al., Cancer Res, 47, 936 (1987) and T. J. Mosmann et al., Immunol. Methods, 65, 55 (1983). The human lymphoblast RPMI 8402 and its camptothecin-resistant variant cell line, CPT-K5 were provided by Dr. Toshiwo Andoh (Aichi Cancer Center Research Institute, Nagoya, Japan). See, for example, T. Andoh et al., Adv. Pharmacol., 29B, 93 (1994). The cytotoxicity assay was performed using 96-well microtiter plates. Cells were grown in suspension at 37 ° C. in 5% CO2 and maintained by regular passage in RPMI medium supplemented with 10% heat inactivated fetal bovine serum, L-glutamine (2 mM), penicillin (100 U/ml), and streptomycin (0.1 mg/ml). For determination of IC50, cells were exposed continuously with varying concentrations of drug concentrations and MTT assays were performed at the end of the fourth day.
(§2) The drug sensitive human epidermoid carcinoma KB3-1 cell line (S. Aliyama et al., Somatic Cell Mol. Genet., 11, 117 (1985)) and its vinblastine-selected multidrug-resistant variant KBV-1 cells (D. W. Shen et al., Science, 32, 643 (1986)) were provided by Dr. Michael Gottesmann (National Cancer Institute, Bethesda, Md.). […]

[2] = tested on: KBV-1 cells (multidrug-resistant variant, overexpress MDR1); assay: MTT cytotoxicity assay, KBV-1; type: cell-based, human
Method: as §1, §2

With `c1ccc(-c2ccc3[nH]c(-c4ccc5[nH]c(-c6ccc7[nH]cnc7c6)nc5c4)nc3c2)cc1` [Compound 13, 5-Phenyl-2-[2'(benzimidazol-5"-yl)benzimidazol-5'-yl]benzimidazole] the IC50 [1] was 580 nM and the “difference between IC50 values in KB 3-1 and KB V-1 cells” value [2] was “little difference”.
